Laboratory results reported in PMC4398456, “Evidence for a Novel Mechanism of Antimicrobial Action of a Cyclic R-,W-Rich Hexapeptide” (PLoS ONE, 2015).
Converted amounts (≈) assume the structure as drawn. Residues, ends and D or L forms follow the SMILES beside them.

Legend:
[1] = test system: B. subtilis L-170 (cell wall-deficient L-form); assay type: cell-based; details: microdilution, 96-well, 0.05 to 100 μM peptide, BHI with supplements, OD550 0.4, 18 hours, 37°C; triplicates, at least three independent experiments
Experimental: (§1) For L-form bacteria BHI medium was supplemented with […] penicillin and additional 50 mg/ml sucrose and 30 mg/ml yeast extract in the case of B. subtilis L-170. L-form cells were cultivated as described above using flat bottom glass flasks and OD was measured at 550 nm (OD550 = 1 corresponds to 3.92 × 10^8 CFU/ml L-170 and 9.75 × 10^8 CFU/ml L-WF+).
(§2) To determine the minimal inhibitory peptide concentration (MIC) of bacterial growth we applied a microdilution technique as described previously. Briefly, the antimicrobial activity was tested against L-form bacteria in 96-well plates with final peptide concentrations ranging from 0.05 to 100 μM. Cultures were diluted to OD550 0.4 in BHI containing strain-specific supplements. Cells were grown for 18 hours at 37°C and 180 rpm. Peptide activity was tested in triplicates in at least three independent experiments.

[2] = test system: E. coli L-WF+ (cell wall-deficient L-form, W1655 F+); assay type: cell-based; details: microdilution, 96-well, 0.05 to 100 μM peptide, BHI with supplements, OD550 0.4, 18 hours, 37°C; triplicates, at least three independent experiments
Experimental: as §1, §2

ITC binding to LUVs [3] = details: 25°C; for K 0 (hydrophobic partition coefficient): phosphate buffer pH 7.4, surface partition model; for ΔG°: calculated as -RT ln(55.5 M × K 0); for -TΔS°: from Gibbs-Helmholtz equation
Source text: (§3) Large unilamellar vesicles (LUVs) were used for isothermal titration calorimetry studies and prepared as described before. […] As CL potentially carries two negative charges it was applied at half POPG concentrations to give liposomes with identical surface charge. Subsequently, chloroform was evaporated under nitrogen stream and obtained lipid films were dried under high vacuum for several hours and rehydrated in phosphate buffer by thorough vortexing. The solution was heated 2–3 times in a water bath to 40°C to facilitate resuspension. POPE-LUVs were obtained after 35-fold extrusion through two stacked polycarbonate membranes (100 nm pore size) using a mini extruder (Avestin, Switzerland). The procedure gives vesicles with a diameter of 90–120 nm as determined with dynamic light scattering (DLS) performed on a Zetasizer Nano ZS ZEN 3600 (Malvern Instruments, UK). Large liposomes for dye release experiments were prepared with a solution of 80 mM calcein in 10 mM Tris buffer, 0.1 mM EDTA, pH 7.4 and treated to remove non-incorporated dye as described before.
(§4) High-sensitivity isothermal titration calorimetry (ITC) experiments to characterise peptide interaction with model membranes were performed at 25°C on a VP-ITC instrument (MicroCall, Malvern Instruments, UK). Binding data were generated as described before. Prior to use, solutions were gently degassed under vacuum. 10 μl aliquots of 5 to 10 mM lipid vesicles were titrated into a 40 μM peptide solution inside the calorimeter cell (1.4 ml) while the reaction mixture was continuously stirred at 307 rpm. Time intervals between injections were adjusted to 10 min which was sufficient for the heat signal to return to baseline level. Automated baseline adjustment and peak integration were accomplished with the public-domain software NITPIC [32].
(§5) Binding parameters, such as hydrophobic partition coefficient (K 0) and enthalpy of binding (ΔH°), were derived by applying a surface partition equilibrium under the specific condition that peptide adsorption is linearly related to the peptide concentration immediately above the membrane surface. This concentration in close proximity to the membrane is determined by electrostatic interactions and depends on the bulk concentration of peptide, peptide charge and membrane surface potential. Negatively charged lipid layers attract cationic peptides. Consequently, the membrane surface concentration is enhanced compared to that in the bulk solution. After binding of cationic peptides to an electrically neutral membrane it becomes positively charged which results in a repulsion of further peptides from the membrane surface. Using the Gouy—Chapman theory which accounts for electrostatic effects, it is possible to calculate the peptide surface concentration and to determine the partition coefficient K 0 [33]. Nonlinear least-squares data fitting was performed with Excel 2010 (Microsoft) using the Solver add-in (Frontline Systems). The Gibbs free energy was calculated according to ΔG° = -RT ln(55.5 M × K 0), where 55.5 M is the molar concentration of water in the aqueous phase. Finally, the entropic contribution to membrane partitioning,-TΔS°, was derived from the Gibbs-Helmholtz equation, ΔG° = ΔH°-TΔS°.

ITC binding to LUVs [4] = test: ITC binding to LUVs; design: species or system E. coli; details: 25°C
Experimental: The lipid concentration of E. coli extract preparations was determined from dried lipid films by gravimetric analysis. Liposomes were prepared after resuspension in phosphate buffer and sonication on ice for 25 min under nitrogen stream using a Labsonic L ultrasonicator (B. Braun Biotech, Germany) followed by centrifugation for 5 min at 11000 × g (Eppendorf MiniSpin, Germany) to remove potential titanium debris. The diameter of LUVs from E. coli extract was 90 nm. According to manufacturer's data, E. coli polar lipid extract is a three component mixture containing 71.4% PE-, 23.4% PG-lipids and 5.2% CL (mol%).
as §4, §5

[5] = Calcein dye release from liposomes; assay type: biochemical; details: 10 μM peptide, 1 min, Tris buffer pH 7.4, room temperature; for permeabilisation (calcein dye release): fluorescence; for dye release: cardiolipin 40 mol%
Source text: as §3
Peptide-induced calcein release was monitored fluorimetrically by measuring the time-dependent decrease in self-quenching (ex 490 nm, em 514 nm) at room temperature on a LS 50B spectrofluorimeter (Perkin Elmer, Germany) as described before. Lipid concentration was 25 μM in Tris buffer (10 mM Tris, 154 mM NaCl, pH 7.4) and peptide concentrations ranged from 1 to 200 μM. The fluorescence intensity corresponding to 100% release was determined by addition of a 10% Triton X-100 solution. In this study, calcein release was analysed after 1 min of incubation with 10 μM peptide and 25 μM liposomal suspensions.

E. coli DH5α = details: microdilution; reported before; cited from earlier work
B. subtilis DSM 347 = details: microdilution; reported before; cited from earlier work
mammalian cells = details: cited from earlier work
Source text: The structure-activity-relationship of small cyclic R-,W-rich peptides is well characterised. […] With cationic charge and high amphipathicity the cyclic peptide features the structural determinants for membrane activity.

[6] = LUVs of POPC/CL (87.5/12.5 mol%)
[7] = LUVs of POPE/CL (87.5/12.5 mol%)

N=C(N)NCCC[C@@H]1NC(=O)[C@H](CCCNC(=N)N)NC(=O)[C@H](Cc2c[nH]c3ccccc23)NC(=O)[C@H](Cc2ccccc2)NC(=O)[C@H](Cc2c[nH]c3ccccc23)NC(=O)[C@H](CCCNC(=N)N)NC1=O [cWFW] (cyclo(FWRRRW))
MIC B. subtilis L-170 [1]: 6 µM (≈ 5.93 µg/mL)
MIC E. coli L-WF+ [2]: 12 µM (≈ 11.9 µg/mL)
ΔH° (ITC binding to LUVs [3]; 5 mM LUVs into 40 μM peptide, γ = 1): -12.0 kJ/mol
K 0 (hydrophobic partition coefficient) (ITC binding to LUVs [3]; 5 mM LUVs titrated into 40 μM peptide, γ = 1): 5.5e+07 M⁻¹
ΔH° (ITC binding to LUVs [3]; 10 mM LUVs into 40 μM peptide, γ = 0.5): -5.1 kJ/mol
K 0 (hydrophobic partition coefficient) (ITC binding to LUVs [3]; 10 mM LUVs titrated into 40 μM peptide, γ = 0.5): 3.7e+06 M⁻¹
K 0 (hydrophobic partition coefficient) (ITC binding to LUVs [3]; 5 to 10 mM LUVs titrated into 40 μM peptide, γ = 0.5): 1.4e+06 M⁻¹
ΔH° (ITC binding to LUVs [3]; LUVs into 40 μM peptide, γ = 0.5): -24.3 kJ/mol
ΔG° (ITC binding to LUVs [3]; [6]): -45.0 kJ/mol
ΔG° (ITC binding to LUVs [3]; [7]): -54.1 kJ/mol
ΔG° (ITC binding to LUVs [3]; LUVs of POPE/POPG (75/25 mol%)): -47.4 kJ/mol
-TΔS° (ITC binding to LUVs [3]; [6]): -20.7 kJ/mol
-TΔS° (ITC binding to LUVs [3]; [7]): -42.1 kJ/mol
-TΔS° (ITC binding to LUVs [3]; LUVs of POPE/POPG (75/25 mol%)): -42.3 kJ/mol
ΔH° (ITC binding to LUVs [4]; 10 mM LUVs into 40 μM peptide, γ = 0.6): -16.7 kJ/mol
K 0 (hydrophobic partition coefficient) (ITC binding to LUVs [4]; 10 mM LUVs titrated into 40 μM peptide, phosphate buffer pH 7.4, surface partition model, γ = 0.6): 8.8e+06 M⁻¹
ΔG° (ITC binding to LUVs [4]; calculated as -RT ln(55.5 M × K 0), LUVs of E. coli extract): -49.6 kJ/mol
-TΔS° (ITC binding to LUVs [4]; from Gibbs-Helmholtz equation, LUVs of E. coli extract): -32.9 kJ/mol
peptide-induced dye release ([5]; CL content of 12.5% (matrix lipid not restated, follows sentence on POPE systems), 25 μM lipid): 18%
permeabilisation (calcein dye release) ([5]; PC/7.5% CL, 25 μM lipid): 15%
permeabilisation (calcein dye release) ([5]; PC/25% PG, 25 μM lipid): 8%
permeabilisation (calcein dye release) ([5]; PE/7.5% CL, 25 μM lipid): 8%
permeabilisation (calcein dye release) ([5]; PE/25%PG, 25 μM lipid (peptide/lipid 1/2.5)): 2%
dye release ([5]; POPC-based LUVs, 25 μM lipid): more than 70%
dye release ([5]; POPE-based LUVs, 25 μM lipid): more than 70%
MIC E. coli DH5α (E. coli DH5α): 3 µM (≈ 2.96 µg/mL)
MIC B. subtilis DSM 347 (B. subtilis DSM 347): 3 µM (≈ 2.96 µg/mL)
toxicity towards mammalian cells (mammalian cells): no toxicity
